The values below come from patent publication US20020107228A1, “Topical bisphosphonates for prevention of bone resorption” (Merck & Co., Inc, priority 1996, published 2002).

One assay deals with alveolar bone resorption. The following applies: Yaffe et al. 1995, cited from earlier work.
For assay [1], the system named is Wistar rats. The following applies: sacrifice 3 weeks after flap.
Description: 63 Wistar rats were used in this experiment, and were divided into the four groups. Group A: 15 rats received 0.05 mg/kg body weight of alendronate. Group B: 15 rats received 0.25 mg/kg body weight of alendronate. Group C: 15 rats received 0.5 mg/kg body weight of alendronate. Group D was the control group, where 18 rats received saline. The alendronate sodium or saline was administered one week prior to surgery, at the day of surgery before the surgery was performed, and one week following surgery. The drug was administered IV in the dorsal vein of the penis.
In one experiment, one group of rats were anesthetized prior to surgery or alendronate administration using a mixture of 25 mg/kg body weight of KETALAR (Malgene, Lyon France), and 42 mg/kg body weight XYLAZINE (Rampun Bayer, Leverkusen, Germany) intraperitoneally (IP). A portion of these rats also received 25 mg/kg alendronate IP. […] The flap was elevated using a special small periosteal elevator, and readapted immediately in place without sutures. […]
In another set of experiments, alendronate was applied locally at three dose levels using a wet gauze sponge soaked with a solution of 0.15, 0.75, and 1.5 mg/ml on the exposed bone on the experimental side and saline on the exposed bone on the control side for 10 seconds. Since the sponge could absorb 0.1 ml, the maximum calculated amount of drug applied was 0.5 mg/kg body weight. […]
Assay [2] relates to Wistar rats. The following applies: topical, 1 mm GELFOAM pellet soaked in 0.025 ml of 20 mg/ml alendronate in saline, in situ at least two hours; sacrifice 21 days after surgery; vs GELFOAM-only control side.
Description: Wistar rats were used in the following experiment. The right side of the mandible was used as the experimental side and the left side was used as the control.
The rats were anesthetized prior to surgery using a mixture of 25 mg/kg body weight of KETALAR (Malgene, Lyon, France) and 42 mg/kg body weight of XYLAZINE (Rampun Bayer, Leverkusen, Germany) intraperitoneally (IP).
A mucoperiosteal flap was made on both the buccal and lingual aspects in the region of premolars and molars on both sides of the mandible, two quadrants per rat. The flap was elevated using a special small periosteal elevator. A 1 mm diameter piece of GELFOAM (Upjohn Co., Kalamazoo, Mich.) which was soaked in 0.025 ml alendronate solution (below) was applied to the alveolar bone on both buccal and lingual aspects on the experimental (right) side and the flap was then readapted immediately in place without sutures.
The alendronate solution was prepared by dissolving 20 mg alendronate in 1 ml saline.
A GELFOAM pellet of 1 mm diameter, identical to the alendronate-soaked pellet, but lacking the alendronate, was applied to the alveolar bone in the control side. The entire procedure lasted about 20-40 seconds. The GELFOAM pellets remained in situ for at least two hours while the anesthesia was effected. The rats were fed a soft diet for 24 hours after surgery to avoid flap displacement. […]

The structures appear in SMILES notation.

Turning to `NCCCC(O)(P(=O)(O)O)P(=O)(O)O` [alendronate, 4-amino-1-hydroxy-butylidene 1,1,-bisphosphonic acid], the “inhibiting bone resorption following surgery” value with alveolar bone resorption (alendronate solutions applied topically) is “not found to be effective”. In the assay with alveolar bone resorption (intravenous administration), the “amount of alveolar bone resorption following surgery” value is “reduce”. In addition, the “alveolar bone resorption (X-ray microradiography)” value with Wistar rats [1] (IV, all doses (0.05, 0.25, 0.5 mg/kg), one week before, day of and one week after surgery) is “reduced”. For the same compound, the “effect on reducing bone resorption (alveolar bone, X-ray microradiography)” value in the assay with Wistar rats [1] (applied locally for 10 seconds on alveolar bone during surgery, wet gauze sponge, 0.15, 0.75 and 1.5 mg/ml) is “no noticeable effect”. Besides, the “bone resorption (alveolar bone, X-ray microradiography)” value with Wistar rats [2] is “inhibited”.
